From ChEMBL document CHEMBL1641394, “Terpenoids from the aerial parts of Parasenecio deltophylla” (J Nat Prod, 2010)

Tests used:
[1] = tested on: HepG2; assay: Cytotoxicity against human HepG2 by MTT assay; format: functional, cell-based
[2] = tested on: HL-60; assay: Cytotoxicity against human HL60 by MTT assay; format: functional, cell-based
[3] = Antioxidant activity assessed as ABTS radical scavenging activity by decolorization assay; format: functional
[4] = tested on: Radical scavenging activity; assay: Antioxidant activity assessed as DPPH radical scavenging activity; format: functional

Compound | IC50 [1] [µM] | IC50 [2] [µM] | IC50 [3] [µM] | IC50 [4] [µM]
CO[C@@]12[C@H](COC(N)=O)C3=C(C(=O)C(C)=C(N)C3=O)N1C[C@@H]1N[C@@H]12 [MITOMYCIN] | 5.4 | 1.5 | – | –
CCCCCCCCCCCCCCCC(=O)O[C@H]1CC(C)(C)C2=CC(=O)O[C@]2(C)C1 | – | 47.5 | > 200 | > 200
Cc1c(C)c2c(c(C)c1O)CCC(C)(C(=O)O)O2 (configuration not stated) [TROLOX] | – | – | 13.2 | 13.2
C/C=C(/C)C(=O)OCc1c(C(C)=O)c(O)c(OC)c2c1[C@@H](C)[C@@H]1O[C@@H]1[C@H]2O | – | – | > 200 | > 200
C/C=C(/C)C(=O)OCc1c(C(C)=O)c(O)c(OC)c2c1[C@@H](C)[C@@H](O)C=C2 | – | – | > 200 | > 200
C/C=C(/C)C(=O)OCc1c(C(C)=O)c(O)c(OC)c2c1[C@@H](C)CC=C2 | – | – | > 200 | > 200
C/C=C(/C)C(=O)OCc1c2c(c(OC)c3occ(C)c13)C(=O)[C@H]1O[C@H]1[C@@H]2C | 27.8 | 49.8 | > 200 | > 200
